# “Also recorded” adds a separate entry of the source. Like-named read-outs stand apart in the source and are kept apart here.
# Columns and labels:
# tACE = tACE (Homo sapiens, UniProt P12821); settings: cited from earlier work
# [1] = cited from earlier work
# ACE [2] = target: T1, ACE (Homo sapiens, UniProt P12821); settings: binding affinity, from [27]; cited from earlier work
# [3] = system: West Nile virus encephalitis; assay: case series: West Nile virus encephalitis treated with angiotensin II receptor blockade; type: in vivo, human; settings: for clinical outcome: patient 8, person with chronic lymphocytic leukemia, intravenous enalapril then losartan 50 mg daily
# Procedure: Table 2. […] A person with past history of tremors was admitted with fever, stiff neck, severe confusion, and gross tremors to a hospital in Omaha, Nebr. one night. Their serum was positive for IgM reactive to West Nile virus. They were begun on olmesartan 20 mg daily. […] They were discharged home on olmesartan 20 mg daily. • 2. A person with hypertension treated with a beta-blocker/thiazide combination drug, was admitted to a hospital in Omaha, Nebr. with right leg paralysis and paresthesias and weakness in their left leg. Their serum was positive for IgM reactive to West Nile virus. They were begun on losartan 50 mg daily. […] A person with a history of seizures was admitted one night to a hospital in Omaha, Nebr. with a fever and a grand mal seizure. They had been taking olmesartan 20 mg daily for mild hypertension. Their serum was positive for IgM reactive to West Nile virus. […] Their usual dose of olmesartan 20 mg daily was resumed thereafter. […] A person was admitted with fever, stiff neck, and severe confusion to a hospital in Omaha, Nebr. Their serum was positive for IgM antibodies reactive to West Nile virus. They were begun on losartan 50 mg daily. […] A person was admitted with fever, stiff neck, and severe confusion to a hospital in Omaha, Nebr. Their serum was positive for IgM antibodies reactive to West Nile virus. They were begun on losartan 50 mg daily. […] A person was admitted with fever, stiff neck, and severe confusion to a hospital in Pueblo, CO. Their serum was positive for IgM antibodies reactive to West Nile virus. They were begun on losartan 50 mg daily. […] A person with chronic lymphocytic leukemia was admitted with fever and obtundation to a hospital in Pueblo, CO. Their serum was positive by EIA for West Nile virus antibodies. […] Head CT and MRI scans were negative.
# serum ACE = target: T2, serum ACE (Homo sapiens, UniProt P12821); settings: cited from earlier work
# T2 construct: host or cells: serum
# ACE [4] = target: T1, ACE; settings: cited from earlier work
# psoriasis = type: in vivo, human; settings: one person with type II diabetes, quinapril 200 mg/day (2 mg/kg/day); could stop daily methotrexate 75 mg
# [5] = system: unresectable pancreatic cancer; assay: case report: unresectable pancreatic cancer, quinapril added; type: in vivo, human; settings: person, 5-FU and Naitrexone since February 2002, quinapril (60 mg) since November 2002; median survival of similar patients less than 4 months
# chronic renal failure = settings: clinical comparison, from [20]; cited from earlier work
# pulmonary hypertension = settings: clinical comparison, from [20,22]; cited from earlier work
# alopecia areata = assay: case reports: alopecia areata treated with an ARB; type: in vivo, human
# [6] = type: in vivo, human; settings: 40 mg po qhs; reduced from 98 mm Hg
# Procedure: Because many patients with an autoimmune disease such as alopecia greata, psoriasis, rheumatoid arthritis, multiple sclerosis, etc. are normotensive or even relatively hypotensive, an ACE inhibitor may not be the best choice for them. They might not be able to tolerate a sufficiently high dose of an ACE inhibitor, certainly any dose approaching 2 mg/kg/day. Instead, an AT1 receptor blocker appears to be effective at doses which cause minimal blood pressure (BP) reduction. […]
# [7] = pH 7.4, active moiety, calculated from [23]
# [8] = pH 7.4, active moiety, calculated from [24]
# [9] = patient 2, losartan 50 mg daily
# T1 sequence (P12821 30-1306): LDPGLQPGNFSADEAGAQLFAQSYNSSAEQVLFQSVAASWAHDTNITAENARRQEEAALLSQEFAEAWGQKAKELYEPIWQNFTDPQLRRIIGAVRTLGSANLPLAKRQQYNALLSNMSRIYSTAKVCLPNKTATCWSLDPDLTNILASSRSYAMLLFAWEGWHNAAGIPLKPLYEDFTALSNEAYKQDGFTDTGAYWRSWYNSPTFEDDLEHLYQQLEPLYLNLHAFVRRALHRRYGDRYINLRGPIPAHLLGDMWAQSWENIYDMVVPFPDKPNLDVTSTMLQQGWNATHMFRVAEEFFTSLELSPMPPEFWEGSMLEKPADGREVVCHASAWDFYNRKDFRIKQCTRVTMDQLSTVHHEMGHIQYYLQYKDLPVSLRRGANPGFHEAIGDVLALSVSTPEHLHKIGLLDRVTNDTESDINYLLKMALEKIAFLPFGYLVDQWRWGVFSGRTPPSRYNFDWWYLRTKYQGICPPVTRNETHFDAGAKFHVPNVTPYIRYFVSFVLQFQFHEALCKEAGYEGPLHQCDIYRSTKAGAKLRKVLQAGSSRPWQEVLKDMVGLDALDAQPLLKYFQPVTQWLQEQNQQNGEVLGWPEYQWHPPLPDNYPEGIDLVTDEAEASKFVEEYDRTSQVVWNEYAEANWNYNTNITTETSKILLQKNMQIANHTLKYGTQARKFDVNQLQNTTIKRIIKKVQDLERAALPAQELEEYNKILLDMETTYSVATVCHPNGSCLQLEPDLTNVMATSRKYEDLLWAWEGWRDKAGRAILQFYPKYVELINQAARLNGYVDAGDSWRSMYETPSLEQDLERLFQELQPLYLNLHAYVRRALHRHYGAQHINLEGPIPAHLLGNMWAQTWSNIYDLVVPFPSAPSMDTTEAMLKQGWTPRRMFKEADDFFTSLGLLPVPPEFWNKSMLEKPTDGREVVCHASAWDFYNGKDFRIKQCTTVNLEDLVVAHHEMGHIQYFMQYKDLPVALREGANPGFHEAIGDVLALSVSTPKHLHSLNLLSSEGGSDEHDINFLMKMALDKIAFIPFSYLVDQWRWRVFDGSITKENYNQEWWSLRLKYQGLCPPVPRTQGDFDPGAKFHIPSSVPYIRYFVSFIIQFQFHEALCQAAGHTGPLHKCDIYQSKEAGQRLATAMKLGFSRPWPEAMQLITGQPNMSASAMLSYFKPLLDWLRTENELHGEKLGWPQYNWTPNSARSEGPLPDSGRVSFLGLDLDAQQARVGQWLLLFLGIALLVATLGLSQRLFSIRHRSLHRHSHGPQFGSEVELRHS
# T2 sequence (P12821 30-1232): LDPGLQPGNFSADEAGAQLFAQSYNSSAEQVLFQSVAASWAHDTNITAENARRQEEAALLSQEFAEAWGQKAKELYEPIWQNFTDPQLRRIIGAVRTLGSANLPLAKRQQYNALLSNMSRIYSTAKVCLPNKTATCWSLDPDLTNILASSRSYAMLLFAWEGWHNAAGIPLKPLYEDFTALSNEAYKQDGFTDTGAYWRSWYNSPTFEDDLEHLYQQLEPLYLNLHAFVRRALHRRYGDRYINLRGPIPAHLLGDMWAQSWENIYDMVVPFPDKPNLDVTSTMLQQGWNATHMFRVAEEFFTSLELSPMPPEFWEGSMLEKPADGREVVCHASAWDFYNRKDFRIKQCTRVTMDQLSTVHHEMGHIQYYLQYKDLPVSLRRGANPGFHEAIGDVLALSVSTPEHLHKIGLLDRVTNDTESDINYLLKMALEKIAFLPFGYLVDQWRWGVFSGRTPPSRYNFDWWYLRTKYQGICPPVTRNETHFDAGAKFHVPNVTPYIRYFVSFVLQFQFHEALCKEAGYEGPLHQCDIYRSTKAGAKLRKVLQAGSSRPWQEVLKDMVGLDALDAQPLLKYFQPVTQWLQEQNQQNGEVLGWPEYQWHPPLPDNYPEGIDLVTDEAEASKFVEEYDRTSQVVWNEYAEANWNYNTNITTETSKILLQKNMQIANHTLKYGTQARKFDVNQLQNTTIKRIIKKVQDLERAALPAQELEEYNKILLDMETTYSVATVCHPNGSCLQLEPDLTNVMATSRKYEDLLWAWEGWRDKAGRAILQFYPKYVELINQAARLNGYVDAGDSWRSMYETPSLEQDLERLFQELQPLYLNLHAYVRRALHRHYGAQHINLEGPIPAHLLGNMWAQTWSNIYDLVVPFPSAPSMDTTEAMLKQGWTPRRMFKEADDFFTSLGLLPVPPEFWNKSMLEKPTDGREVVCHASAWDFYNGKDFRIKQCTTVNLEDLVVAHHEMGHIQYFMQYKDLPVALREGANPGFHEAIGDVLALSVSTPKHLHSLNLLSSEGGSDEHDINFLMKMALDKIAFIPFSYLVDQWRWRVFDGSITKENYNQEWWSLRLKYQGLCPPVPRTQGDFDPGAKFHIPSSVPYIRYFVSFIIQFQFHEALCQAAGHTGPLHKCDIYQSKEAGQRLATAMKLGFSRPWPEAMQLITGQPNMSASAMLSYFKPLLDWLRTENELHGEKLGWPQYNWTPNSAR
# Chain of tACE (P12821 other isoform, or with tags, fused parts or gaps): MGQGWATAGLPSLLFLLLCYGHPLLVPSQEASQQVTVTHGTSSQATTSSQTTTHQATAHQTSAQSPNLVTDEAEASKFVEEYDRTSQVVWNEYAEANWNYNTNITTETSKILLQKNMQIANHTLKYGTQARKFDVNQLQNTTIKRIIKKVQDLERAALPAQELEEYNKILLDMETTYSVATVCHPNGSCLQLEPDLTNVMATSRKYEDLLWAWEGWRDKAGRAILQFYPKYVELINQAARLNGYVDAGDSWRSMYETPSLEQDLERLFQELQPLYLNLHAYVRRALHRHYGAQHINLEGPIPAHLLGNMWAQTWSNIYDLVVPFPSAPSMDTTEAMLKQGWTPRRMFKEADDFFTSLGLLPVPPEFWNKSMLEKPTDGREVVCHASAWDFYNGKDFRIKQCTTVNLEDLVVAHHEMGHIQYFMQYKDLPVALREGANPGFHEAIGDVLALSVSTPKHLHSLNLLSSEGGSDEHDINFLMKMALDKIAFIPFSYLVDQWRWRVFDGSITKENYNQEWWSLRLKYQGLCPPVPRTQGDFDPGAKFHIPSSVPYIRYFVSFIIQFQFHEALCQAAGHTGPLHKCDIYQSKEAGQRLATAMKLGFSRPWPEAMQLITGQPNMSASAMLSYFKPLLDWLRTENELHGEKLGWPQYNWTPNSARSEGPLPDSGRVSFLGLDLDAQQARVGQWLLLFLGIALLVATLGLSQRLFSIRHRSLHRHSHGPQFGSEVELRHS
compound,measurement,setting,value
O[C@H](CS)[C@H](O)CS (racemic) [dithiothreitol],inhibition of tACE's activity,tACE,78%
O=C(O)CN1C(=O)[C@@H](N[C@@H](CCc2ccccc2)C(=O)O)CCc2ccccc21 [Benazeprilat],P(octanol:water),[1]; [7],3.0
C[C@H](CS)C(=O)N1CCC[C@H]1C(=O)O [Captopril],P(octanol:water),[1]; [7],0.01
same,P(octanol:water),[1]; [8],0.004
NCCCC[C@H](OP(=O)(O)CCCCc1ccccc1)C(=O)N1CCC[C@H]1C(=O)O [Ceronapril],P(octanol:water),[1]; [8],<0.001
O=C(O)[C@H](CCc1ccccc1)N[C@H]1CCCN2CCC[C@@H](C(=O)O)N2C1=O [Cilazaprilat],P(octanol:water),[1]; [7],1.7
O=C(O)[C@@H]1C[C@@H](C2CCCCC2)CN1C(=O)CP(=O)(O)CCCCc1ccccc1 [Fosinoprilat],P(octanol:water),[1]; [8],0.33
CCC[C@H](N[C@@H](C)C(=O)N1[C@H](C(=O)O)C[C@@H]2CCCC[C@@H]21)C(=O)O [Perindoprilat],P(octanol:water),[1]; [7],0.44
C[C@H](N[C@@H](CCc1ccccc1)C(=O)O)C(=O)N1Cc2ccccc2C[C@H]1C(=O)O [Quinaprilat],P(octanol:water),[1]; pH 7.4,6.6
C[C@H](N[C@@H](CCc1ccccc1)C(=O)O)C(=O)N1[C@H](C(=O)O)C[C@@H]2CCC[C@@H]21 [Ramiprilat],IC50,ACE [2],0.67 nM
same,P(octanol:water),[1]; [7],2.6
same,P(octanol:water),[1]; [8],0.011
C[C@H](N[C@@H](CCc1ccccc1)C(=O)O)C(=O)N1[C@H](C(=O)O)C[C@H]2CCCC[C@@H]21 [Trandolaprilat],P(octanol:water),[1]; [7],10.47
C[C@H](CS)C(=O)N1C[C@@H](Sc2ccccc2)C[C@H]1C(=O)O [Zofenoprilat],P(octanol:water),[1]; [8],0.22
CCOC(=O)[C@H](CCc1ccccc1)N[C@@H](C)C(=O)N1CCC[C@H]1C(=O)O [enalapril],clinical outcome,[3],remained in coma
same,inhibition of serum ACE activity,serum ACE,about 50%
same,off time,ACE [4],4 h
CCCCc1nc(Cl)c(CO)n1Cc1ccc(-c2ccccc2-c2nn[nH]n2)cc1 [losartan],right leg paralysis,[3]; [9],no change
same,time until paresthesias and weakness in left leg stopped,[3]; [9],1 to 2 days
same,time to full recovery,"[3]; patient 3, losartan 50 mg twice in first 24 hr, usual olmesartan 20 mg daily resumed thereafter",≤ 12 h
same,time until meningoencephalitis disappeared,"[3]; patient 4, losartan 50 mg daily",≤ 48 h
same,time until meningoencephalitis disappeared,"[3]; patient 5, losartan 50 mg daily",≤ 48 h
same,time until meningoencephalitis disappeared,"[3]; patient 6, losartan 50 mg daily",≤ 24 h
same,time until disappearance of residual weakness and fatigue,"[3]; patient 7, one month after meningoencephalitis, losartan 50 mg daily",≤ 24 h
same,clinical outcome,[3],remained in coma
CCOC(=O)[C@H](CCc1ccccc1)N[C@@H](C)C(=O)N1Cc2ccccc2C[C@H]1C(=O)O [quinapril],response of psoriasis,psoriasis,put the patient's psoriasis into remission; also recorded: responded dramatically
same,survival,[5],"still alive in November, 2003"
same,off time,ACE [4],24 h
same,effectiveness at delaying the progression of chronic renal failure,chronic renal failure,more effective than ramipril
CCOC(=O)[C@H](CCc1ccccc1)N[C@@H](C)C(=O)N1[C@H](C(=O)O)C[C@@H]2CCC[C@@H]21 [ramipril],inhibition of serum ACE activity,serum ACE; from [20],~100%
same,off time,ACE [4]; from [28-30],24 h
same,effectiveness at lowering pulmonary hypertension,pulmonary hypertension,more effective at lowering pulmonary hypertension than enlapril
CCCCC(=O)N(Cc1ccc(-c2ccccc2-c2nnn[nH]2)cc1)[C@H](C(=O)O)C(C)C [valsartan],time until scalp hair loss resumed after stopping the ARB,"alopecia areata; ARB stopped after 1 week, same patient",3 to 4 days
same,time until hair loss stopped after starting the ARB,"alopecia areata; active alopecia areata, child, 40 mg po qhs, n=1",≤ 36 h
same,time for valsartan to have an effect,"alopecia areata; more chronic form of alopecia areata, n=1",more than 5 days
same,systolic BP on treatment,[6],90 mm Hg
